Where two headings read alike, the source gives them in different places.
What was measured:
Assay type in all cases: cell-based
TNF-α = test: Inhibition of TNF-α production by stimulated human peripheral blood leukocytes in vitro; settings: for inhibition at 10 µM / inhibition at 50 µM: Homo sapiens, Leukocyte, read-out: Percentage of inhibition of TNF-α production
Description: (§1) Test substances used in in vitro experiments were dissolved in dimethyl sulfoxide (DMSO) (Kemika, Croatia) at concentrations of 50 mM and 10 mM, and were further diluted to final concentrations of 50 μM and 10 μM in 1 mL Dulbecco's modified Eagle medium (DMEM) supplemented with 1% heat inactivated fetal bovine serum (FBS), 1% L-glutamine, 50 U/ml penicillin, 50 μg/ml streptomycin and 2.5 μg/mL Fungizone (amphotericin B). Media and all media supplements were purchased from Gibco, Australia, except the FBS was purchased from Sigma, USA.
(§2) Peripheral blood leukocytes (PBL) were obtained from venous blood of healthy volunteers by sedimentation on 2% dextran T-500 (Amersham Biosciences, USA) and subsequent centrifugations of leukocyte rich plasma.
(§3) Peripheral blood leukocytes (PBL), isolated as described above, were seeded in a 48-well plate at a concentration of 3 to 5×10^6 cell per well in culture medium consisting of RPMI 1640 medium (Institute of Immunology, Croatia) supplemented with 10% heat-inactivated fetal calf serum (FCS, Biowhittaker, USA), 100 U/ml penicillin (Gibco, Australia), 100 μg/ml streptomycin (Gibco, Australia) and 2 mM L-glutamine (Gibco, Australia), and preincubated with the test compounds for 2 h at 37° C., in an atmosphere of 5% CO2, and 90% humidity. Then, stimuli (Sigma, USA) were added to a final concentration of 2 μg/mL lipopolysaccharide (LPS), 1 μg/mL phorbol 12-myristate 13-acetate (PMA) or 120 μg/mL zymosan. Samples were incubated overnight under conditions described above. At the end of incubation, the supernatants were transferred to eppendorf tubes and centrifuged for 10 min at 1500×g. Concentrations of human TNF-α, IL-1β, IL-6 and IL-8 were determined in cell supernatants by sandwich ELISA, using capture and detection antibodies (R&D Systems, Minneapolis, Minn.) according to the manufacturer's recommendations.
(§4) Inhibition (as percentage) was calculated using the following formula: % inhibition=(1−concentration of cytokines in sample/concentration of cytokines in positive control)×100.
(§5) The positive control refers to LPS-, PMA- or zymosan-stimulated samples that were not preincubated with test compounds.

IL-6 = test: Inhibition of IL-6 production by stimulated human peripheral blood leukocytes in vitro; settings: for inhibition at 10 µM / inhibition at 50 µM: Homo sapiens, Leukocyte, read-out: Percentage of inhibition of IL-6 production
Description: as §1, §2, §3, §4, §5

IL-1α = test: Inhibition of IL-1 production by stimulated human peripheral blood leukocytes in vitro; settings: for inhibition at 10 µM / inhibition at 50 µM: Homo sapiens, Leukocyte, read-out: Percentage of inhibition of IL-1α production
IL-8 = test: Inhibition of IL-8 production by stimulated human peripheral blood leukocytes in vitro; settings: for inhibition at 10 µM / inhibition at 50 µM: Homo sapiens, Leukocyte, read-out: Percentage of inhibition of IL-8 production
Description: as §1, §2, §3, §4, §5

CC[C@H]1OC(=O)[C@H](C)[C@@H](O[C@H]2C[C@@](C)(OC)[C@@H](OCCCN(CC)CC)[C@H](C)O2)[C@H](C)[C@@H](O[C@@H]2O[C@H](C)C[C@H](N(C)C)[C@H]2O)[C@](C)(O)C[C@@H](C)CN(C)[C@H](C)[C@H]2OC(=O)O[C@@]21C [Example 95, 4″-O-(3-diethylamino-propyl)-azithromycin 11,12-cyclic carbonate]
Percentage of inhibition of TNF-α production (TNF-α; 10 μM, LPS-stimulated PBL): 12%
Percentage of inhibition of TNF-α production (TNF-α; 10 μM, PMA-stimulated PBL): 34%
Percentage of inhibition of TNF-α production (TNF-α; 10 μM, zymosan-stimulated PBL): 47%
Percentage of inhibition of TNF-α production (TNF-α; 50 μM, LPS-stimulated PBL): 30%
Percentage of inhibition of TNF-α production (TNF-α; 50 μM, PMA-stimulated PBL): 50%
Percentage of inhibition of TNF-α production (TNF-α; 50 μM, zymosan-stimulated PBL): 63%
Percentage of inhibition of IL-6 production (IL-6; 10 μM, LPS-stimulated PBL): 1%
Percentage of inhibition of IL-6 production (IL-6; 10 μM, PMA-stimulated PBL): 17%
Percentage of inhibition of IL-6 production (IL-6; 10 μM, zymosan-stimulated PBL): 18%
Percentage of inhibition of IL-6 production (IL-6; 50 μM, LPS-stimulated PBL): 8%
Percentage of inhibition of IL-6 production (IL-6; 50 μM, PMA-stimulated PBL): 56%
Percentage of inhibition of IL-6 production (IL-6; 50 μM, zymosan-stimulated PBL): 58%
Percentage of inhibition of IL-1α production (IL-1α; 10 μM, LPS-stimulated PBL): 0%
Percentage of inhibition of IL-1α production (IL-1α; 10 μM, PMA-stimulated PBL): 25%
Percentage of inhibition of IL-1α production (IL-1α; 10 μM, zymosan-stimulated PBL): 38%
Percentage of inhibition of IL-1α production (IL-1α; 50 μM, LPS-stimulated PBL): 0%
Percentage of inhibition of IL-1α production (IL-1α; 50 μM, PMA-stimulated PBL): 75%
Percentage of inhibition of IL-1α production (IL-1α; 50 μM, zymosan-stimulated PBL): 42%
Percentage of inhibition of IL-8 production (IL-8; 10 μM, LPS-stimulated PBL): 0%
Percentage of inhibition of IL-8 production (IL-8; 10 μM, PMA-stimulated PBL): 0%
Percentage of inhibition of IL-8 production (IL-8; 10 μM, zymosan-stimulated PBL): 5%
Percentage of inhibition of IL-8 production (IL-8; 50 μM, LPS-stimulated PBL): 16%
Percentage of inhibition of IL-8 production (IL-8; 50 μM, PMA-stimulated PBL): 21%
Percentage of inhibition of IL-8 production (IL-8; 50 μM, zymosan-stimulated PBL): 33%

CC[C@H]1OC(=O)[C@H](C)[C@@H](O[C@H]2C[C@@](C)(OC)[C@@H](OCCCN(CC)CC)[C@H](C)O2)[C@H](C)[C@@H](O[C@@H]2O[C@H](C)C[C@H](N(C)C)[C@H]2O)[C@](C)(O)C[C@@H](C)CN(C)[C@H](C)[C@@H](O)[C@]1(C)O [Example 96, 4″-O-(3-diethylamino-propyl)-azithromycin]
inhibition at 10 µM (TNF-α; 10 μM, LPS-stimulated PBL): 3%
inhibition at 10 µM (TNF-α; 10 μM, PMA-stimulated PBL): 14%
inhibition at 10 µM (TNF-α; 10 μM, zymosan-stimulated PBL): 21%
inhibition at 50 µM (TNF-α; 50 μM, LPS-stimulated PBL): 13%
inhibition at 50 µM (TNF-α; 50 μM, PMA-stimulated PBL): 48%
inhibition at 50 µM (TNF-α; 50 μM, zymosan-stimulated PBL): 61%
inhibition at 10 µM (IL-6; 10 μM, LPS-stimulated PBL): 0%
inhibition at 10 µM (IL-6; 10 μM, PMA-stimulated PBL): 27%
inhibition at 10 µM (IL-6; 10 μM, zymosan-stimulated PBL): 17%
inhibition at 50 µM (IL-6; 50 μM, LPS-stimulated PBL): 3%
inhibition at 50 µM (IL-6; 50 μM, PMA-stimulated PBL): 64%
inhibition at 50 µM (IL-6; 50 μM, zymosan-stimulated PBL): 76%
inhibition at 10 µM (IL-1α; 10 μM, LPS-stimulated PBL): 0%
inhibition at 10 µM (IL-1α; 10 μM, PMA-stimulated PBL): 32%
inhibition at 10 µM (IL-1α; 10 μM, zymosan-stimulated PBL): 36%
inhibition at 50 µM (IL-1α; 50 μM, LPS-stimulated PBL): 0%
inhibition at 50 µM (IL-1α; 50 μM, PMA-stimulated PBL): 81%
inhibition at 50 µM (IL-1α; 50 μM, zymosan-stimulated PBL): 88%
inhibition at 10 µM (IL-8; 10 μM, LPS-stimulated PBL): 0%
inhibition at 10 µM (IL-8; 10 μM, PMA-stimulated PBL): 0%
inhibition at 10 µM (IL-8; 10 μM, zymosan-stimulated PBL): 6%
inhibition at 50 µM (IL-8; 50 μM, LPS-stimulated PBL): 17%
inhibition at 50 µM (IL-8; 50 μM, PMA-stimulated PBL): 12%
inhibition at 50 µM (IL-8; 50 μM, zymosan-stimulated PBL): 40%

CCC1OC(=O)C(C)C(OC2CC(C)(OC)C(OCCCN3CCN(CCN(CC)CC)CC3)C(C)O2)C(C)C(OC2OC(C)CC(N(C)C)C2O)C(C)(O)CC(C)CN(C)C(C)C2OC(=O)OC12C (stereo not drawn) [Example 97, 4″-O-{3-[4-(2-Diethylamino-ethyl)-piperazin-1-yl]-propyl}azithromycin 11,12-cyclic carbonate]
Percentage of inhibition of TNF-α production (TNF-α; 10 μM, LPS-stimulated PBL): 0%
Percentage of inhibition of TNF-α production (TNF-α; 10 μM, PMA-stimulated PBL): 31%
Percentage of inhibition of TNF-α production (TNF-α; 10 μM, zymosan-stimulated PBL): 43%
Percentage of inhibition of TNF-α production (TNF-α; 50 μM, LPS-stimulated PBL): 62%
Percentage of inhibition of TNF-α production (TNF-α; 50 μM, PMA-stimulated PBL): 57%
Percentage of inhibition of TNF-α production (TNF-α; 50 μM, zymosan-stimulated PBL): 69%
Percentage of inhibition of IL-6 production (IL-6; 10 μM, LPS-stimulated PBL): 0%
Percentage of inhibition of IL-6 production (IL-6; 10 μM, PMA-stimulated PBL): 32%
Percentage of inhibition of IL-6 production (IL-6; 10 μM, zymosan-stimulated PBL): 9%
Percentage of inhibition of IL-6 production (IL-6; 50 μM, LPS-stimulated PBL): 14%
Percentage of inhibition of IL-6 production (IL-6; 50 μM, PMA-stimulated PBL): 51%
Percentage of inhibition of IL-6 production (IL-6; 50 μM, zymosan-stimulated PBL): 56%
Percentage of inhibition of IL-1α production (IL-1α; 10 μM, LPS-stimulated PBL): 0%
Percentage of inhibition of IL-1α production (IL-1α; 10 μM, PMA-stimulated PBL): 57%
Percentage of inhibition of IL-1α production (IL-1α; 10 μM, zymosan-stimulated PBL): 49%
Percentage of inhibition of IL-1α production (IL-1α; 50 μM, LPS-stimulated PBL): 0%
Percentage of inhibition of IL-1α production (IL-1α; 50 μM, PMA-stimulated PBL): 79%
Percentage of inhibition of IL-1α production (IL-1α; 50 μM, zymosan-stimulated PBL): 34%
Percentage of inhibition of IL-8 production (IL-8; 10 μM, LPS-stimulated PBL): 0%
Percentage of inhibition of IL-8 production (IL-8; 10 μM, PMA-stimulated PBL): 4%
Percentage of inhibition of IL-8 production (IL-8; 10 μM, zymosan-stimulated PBL): 10%
Percentage of inhibition of IL-8 production (IL-8; 50 μM, LPS-stimulated PBL): 23%
Percentage of inhibition of IL-8 production (IL-8; 50 μM, PMA-stimulated PBL): 29%
Percentage of inhibition of IL-8 production (IL-8; 50 μM, zymosan-stimulated PBL): 34%

— patent US8080529B2, “Macrolides with anti-inflammatory activity” (Glaxo Group Limited, priority 2005, dated 2011)
